In patent US11076595B2, “1-(n,n-disubstituted carbamoyl) 4-(substituted sulfonyl)triazolin-5-one derivative, 4-(n,n-disubstituted carbamoyl) 1-(substituted sulfonyl)triazolin-5-one derivative, and herbicide containing said derivative as active ingredient” (HOKKO CHEMICAL INDUSTRY CO., LTD., priority 2017, dated 2021):

Key:
Type in all cases: in vivo
[1] = system: Scirpus juncoides; experiment: Test Example 2: herbicidal effect test by treatment during growing period in paddy field; settings: treatment 7 days after sowing, 120 g/10a, evaluated 14 days after treatment
Procedure: (§1) This test was performed with two replications per one formulation concentration plot, and 14 days after the formulation treatments, the weed suppression rate (%) was determined according to the following equation (Math. 1). Weed suppression rate (%)=(1−an average dry weight (g) of plants in treated plots/an average dry weight (g) of plants in untreated plots)×100 [Math. 1]
(§2) A Wagner pot having an area of 1/10000 are was filled with paddy field soil and after adding water, a chemical fertilizer (N:P:K=17:17:17) was mixed, followed by puddling. Thereafter, 30 grains of each of Echinochloa crus-galli, broad-leaved weed (Lindernia pyxidaria and Monochoria vaginalis) and Scirpus juncoides seeds were sown to a depth of 0 to 1 cm. Immediately after the sowing, the pot was flooded, and the depth of water was kept at about 3 cm. The pot was subsequently managed in a glass greenhouse. Seven days after sowing, an emulsifiable concentrate prepared according to Formulation Example 5 by using the compound shown in Table 6 below was diluted with water, and a predetermined amount of the water-diluted formulation was added dropwise. The application rate of the active ingredient, by conversion, corresponded to 120 g per 10 are. The test was performed with two replications per one formulation concentration plot, and 14 days after the formulation treatments, the weed suppression rate (%) was determined according to the equation (Math. 1).

[2] = system: Monochoria vaginalis; experiment: as above; settings: treatment 7 days after sowing, 120 g/10a, evaluated 14 days after treatment
Procedure: as §1, §2

[3] = system: Lindernia pyxidaria; experiment: as above; settings: treatment 7 days after sowing, 120 g/10a, evaluated 14 days after treatment
Procedure: as §1, §2

[4] = system: Echinochloa crus-galli; experiment: as above; settings: treatment 7 days after sowing, 120 g/10a, evaluated 14 days after treatment
Procedure: as §1, §2

[5] = system: Scirpus juncoides; experiment: Test Example 1: herbicidal effect test by soil treatment in paddy field; settings: 120 g/10a, paddy soil treatment just after sowing, 14 days after treatment
Description: as §2, with “greenhouse. Just” for “greenhouse. Seven days”, “after that,” for “after sowing,”, “Table 5” for “Table 6”, “are.” for “are. The test was performed with two replications per one formulation concentration plot, and 14 days after the formulation treatments, the weed suppression rate (%) was determined according to the equation (Math. 1).”
as §1

[6] = system: Monochoria vaginalis; experiment: as above; settings: 120 g/10a, paddy soil treatment just after sowing, 14 days after treatment
Description: as §2, with “greenhouse. Just” for “greenhouse. Seven days”, “after that,” for “after sowing,”, “Table 5” for “Table 6”, “are.” for “are. The test was performed with two replications per one formulation concentration plot, and 14 days after the formulation treatments, the weed suppression rate (%) was determined according to the equation (Math. 1).”
as §1

[7] = system: Lindernia pyxidaria; experiment: as above; settings: 120 g/10a, paddy soil treatment just after sowing, 14 days after treatment
Description: as §2, with “greenhouse. Just” for “greenhouse. Seven days”, “after that,” for “after sowing,”, “Table 5” for “Table 6”, “are.” for “are. The test was performed with two replications per one formulation concentration plot, and 14 days after the formulation treatments, the weed suppression rate (%) was determined according to the equation (Math. 1).”
as §1

[8] = system: Echinochloa crus-galli; experiment: as above; settings: 120 g/10a, paddy soil treatment just after sowing, 14 days after treatment
Description: as §2, with “greenhouse. Just” for “greenhouse. Seven days”, “after that,” for “after sowing,”, “Table 5” for “Table 6”, “are.” for “are. The test was performed with two replications per one formulation concentration plot, and 14 days after the formulation treatments, the weed suppression rate (%) was determined according to the equation (Math. 1).”
as §1

SMILES | weed suppression rate, Scirpus juncoides [1] | weed suppression rate, Monochoria vaginalis [2] | weed suppression rate, Lindemia pyxidaria [3] | weed suppression rate, Echinochloa crus-galli [4] | weed suppression rate, Scirpus juncoides [5] | weed suppression rate, Monochoria vaginalis [6] | weed suppression rate, Lindemia pyxidaria [7] | weed suppression rate, Echinochloa crus-galli [8]
Cc1cc(F)ccc1N(C(=O)n1ncn(S(=O)(=O)C2CC2)c1=O)C(C)C [Compound 1-220] | 90% | 100% | 90% | 100% | 90% | 80% | 100% | 100%
CC(C)N(C(=O)n1ncn(S(=O)(=O)N(C)C)c1=O)c1ccc(F)nc1 [Compound 1-1129] | 90% | 80% | 80% | 90% | 90% | 80% | 80% | 90%
CC(C)N(C(=O)n1ncn(S(=O)(=O)c2cccs2)c1=O)c1ccc(F)cc1 [Compound 1-1052] | 90% | 80% | 80% | 90% | 90% | 80% | 80% | 90%
Cc1ccc(N(C(=O)n2ncn(S(=O)(=O)C3CCCCC3)c2=O)C(C)C)c(F)c1 [Compound 1-320] | 90% | 80% | 80% | 90% | 90% | 90% | 90% | 90%
CC(C)N(C(=O)n1ncn(S(=O)(=O)N(C)C)c1=O)c1ccccc1F [Compound 1-1093] | 90% | 80% | 80% | 90% | 90% | 80% | 80% | 90%
CC(C)N(C(=O)n1ncn(S(=O)(=O)C2CCOC2)c1=O)c1ccc(F)cc1F (racemic) [Compound 1-1161] | 90% | 80% | 80% | 90% | 90% | 80% | 80% | 90%
CC(C)N(C(=O)n1ncn(S(=O)(=O)C2CC2)c1=O)c1ccc(Cl)nc1 [Compound 1-248] | 90% | 90% | 90% | 100% | 100% | 90% | 100% | 100%
CC(C)N(C(=O)n1ncn(S(=O)(=O)C2CCCCC2)c1=O)c1ccc(Cl)cc1F [Compound 1-314] | 100% | 90% | 100% | 90% | 100% | 80% | 100% | 100%
CC(C)N(C(=O)n1ncn(S(=O)(=O)C(C)C)c1=O)c1ccc(Cl)cc1F [Compound 1-73] | 100% | 90% | 80% | 100% | 80% | 90% | 100% | 100%
CC(C)N(C(=O)n1ncn(S(=O)(=O)C2CC2)c1=O)c1ccc(Br)cc1Cl [Compound 1-218] | 100% | 80% | 100% | 100% | 100% | 80% | 100% | 100%
CC(C)N(C(=O)n1ncn(S(=O)(=O)N(C)C)c1=O)c1ccc(Cl)nc1 [Compound 1-1135] | 90% | 70% | 60% | 90% | 90% | 60% | 90% | 90%
CC(C)N(C(=O)n1ncn(S(=O)(=O)N(C)C)c1=O)c1cccnc1F [Compound 1-1128] | 70% | 60% | 90% | 90% | 70% | 60% | 90% | 90%
CC(C)N(C(=O)n1ncn(S(=O)(=O)C2CCCCC2)c1=O)c1ccccc1F [Compound 1-296] | 90% | 90% | 90% | 90% | 90% | 80% | 80% | 90%
CC(C)N(C(=O)n1ncn(S(=O)(=O)C2CCCCC2)c1=O)c1ccc(C#N)cc1Cl [Compound 1-328] | 90% | 80% | 80% | 90% | 90% | 80% | 80% | 90%
CC(C)N(C(=O)n1ncn(S(=O)(=O)C(C)C)c1=O)c1ccc(F)nc1 [Compound 1-91] | 90% | 90% | 90% | 100% | 90% | 90% | 90% | 100%
CC(C)N(C(=O)n1ncn(S(=O)(=O)C2CCCCC2)c1=O)c1c(F)cc(F)cc1F [Compound 1-310] | 100% | 100% | 100% | 100% | 100% | 100% | 100% | 100%
